In US7417054B2, “Naphthyridine compounds” (Janssen Pharmaceutica N.V., priority 2005, dated 2008):
Where a name gives a salt, the structure may show the parent alone. Read-outs that look alike come from different tables or passages of the source.

What was measured:
Rat SERT = Rat SERT (Rattus norvegicus, UniProt P31652); experiment: Rat brain SERT binding, [3H]-Citalopram displacement on rat brain membranes
Description: The supernatant was removed and re-centrifuged at 15,000 rpm for 30 min. […] Membranes were incubated with 0.6 nM [^3H]-Citalopram plus/minus test compounds for 60 min at 25° C. and harvested by rapid filtration over GF/C glass fiber filters (pretreated with 0.3% polyethylenimine) followed by four washes with ice-cold buffer.

human H3 receptor = biological target: T1, human H3 receptor (Homo sapiens, UniProt Q9Y5N1); experiment: H3 receptor binding, N-[3H]-α-methylhistamine displacement on SK-N-MC cell membranes; conditions: cloned human H3 receptor in SK-N-MC cell membranes; 0.8 nM N-[3H]-α-methylhistamine; 60 min at 25° C.
T1 construct: expressed in transfected cells; host or cells: SK-N-MC cells
T1 sequence (Q9Y5N1 whole entry): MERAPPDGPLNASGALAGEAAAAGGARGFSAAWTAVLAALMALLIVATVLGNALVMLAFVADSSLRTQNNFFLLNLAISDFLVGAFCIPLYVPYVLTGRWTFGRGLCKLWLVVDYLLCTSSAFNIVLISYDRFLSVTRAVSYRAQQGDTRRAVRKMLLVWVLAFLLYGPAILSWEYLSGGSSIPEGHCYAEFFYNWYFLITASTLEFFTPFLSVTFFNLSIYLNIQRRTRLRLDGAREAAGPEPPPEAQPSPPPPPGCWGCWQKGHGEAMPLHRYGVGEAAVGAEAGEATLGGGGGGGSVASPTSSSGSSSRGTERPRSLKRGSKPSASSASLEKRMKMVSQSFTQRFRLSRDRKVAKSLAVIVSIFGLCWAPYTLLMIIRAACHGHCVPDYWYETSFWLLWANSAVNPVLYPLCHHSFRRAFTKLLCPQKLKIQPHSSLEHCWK

human SERT = biological target: T2, human SERT (Homo sapiens, UniProt P31645); experiment: Human SERT binding, 3H-citalopram displacement on HEK293 membranes; conditions: HEK293 membranes expressing the human SERT, rt for 1 h
T2 construct: expressed in transfected cells; host or cells: HEK293
T2 sequence (P31645 whole entry): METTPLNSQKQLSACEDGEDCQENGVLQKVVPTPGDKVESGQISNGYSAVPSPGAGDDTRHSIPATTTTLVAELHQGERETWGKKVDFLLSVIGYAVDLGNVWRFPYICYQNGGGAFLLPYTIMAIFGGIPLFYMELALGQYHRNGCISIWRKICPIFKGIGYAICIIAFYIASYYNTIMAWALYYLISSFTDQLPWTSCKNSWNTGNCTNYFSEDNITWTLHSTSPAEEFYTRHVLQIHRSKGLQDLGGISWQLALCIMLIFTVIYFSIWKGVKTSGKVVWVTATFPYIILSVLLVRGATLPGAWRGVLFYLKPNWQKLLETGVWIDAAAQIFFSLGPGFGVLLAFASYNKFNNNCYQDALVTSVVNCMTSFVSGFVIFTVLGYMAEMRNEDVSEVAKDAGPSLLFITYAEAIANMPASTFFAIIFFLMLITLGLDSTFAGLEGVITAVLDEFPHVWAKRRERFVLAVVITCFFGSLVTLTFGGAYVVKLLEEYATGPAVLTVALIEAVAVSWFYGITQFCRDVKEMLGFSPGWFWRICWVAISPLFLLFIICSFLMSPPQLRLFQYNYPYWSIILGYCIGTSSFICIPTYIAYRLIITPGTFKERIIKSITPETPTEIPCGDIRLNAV
Description: Homogenized HEK293 (Human Embryonic Kidney) membranes expressing the human SERT were incubated with ^3H-citalopram (SERT) at rt for 1 h in 50 mM Tris, 120 mM NaCl, 5 mM KCl (pH 7.4). […] The membranes were washed and the radioactivity was counted as above.

[1] = Rat SERT Ki (nM), rat brain membranes without cerebellum, 0.6 nM [3H]-Citalopram, 60 min at 25° C.
[2] = read-out: Rat SERT Ki, rat brain membranes without cerebellum, 0.6 nM [3H]-Citalopram, 60 min at 25° C.

Rat SERT, sequence (P31652 whole entry): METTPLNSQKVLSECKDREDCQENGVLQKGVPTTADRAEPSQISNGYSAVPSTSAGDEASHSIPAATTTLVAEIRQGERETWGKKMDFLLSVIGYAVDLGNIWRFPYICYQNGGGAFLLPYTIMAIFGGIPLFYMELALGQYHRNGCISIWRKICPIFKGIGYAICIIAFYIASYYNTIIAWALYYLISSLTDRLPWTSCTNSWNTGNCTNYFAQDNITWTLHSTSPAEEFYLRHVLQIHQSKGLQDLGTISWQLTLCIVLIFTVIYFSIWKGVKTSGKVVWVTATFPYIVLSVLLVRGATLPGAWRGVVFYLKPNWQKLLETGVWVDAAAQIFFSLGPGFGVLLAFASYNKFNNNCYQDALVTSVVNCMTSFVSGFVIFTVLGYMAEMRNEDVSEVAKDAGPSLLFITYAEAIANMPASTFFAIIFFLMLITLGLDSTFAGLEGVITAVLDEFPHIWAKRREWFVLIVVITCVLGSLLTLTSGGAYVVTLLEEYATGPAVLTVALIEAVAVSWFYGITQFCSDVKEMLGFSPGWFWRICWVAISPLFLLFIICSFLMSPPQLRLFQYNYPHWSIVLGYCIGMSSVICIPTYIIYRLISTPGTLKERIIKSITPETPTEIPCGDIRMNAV

| Structure (SMILES) | Ki (Rat SERT; [1]) | Ki (human H3 receptor) | Ki (Rat SERT; [2]) | Ki (human SERT) | Ki (Rat SERT) |
| --- | --- | --- | --- | --- | --- |
| CN1Cc2cc(OCCCN3CCCCC3)ncc2C(c2ccc(Cl)c(Cl)c2)C1 (single isomer, unassigned; enantiomer b) [Example 39, 4-(3,4-Dichloro-phenyl)-2-methyl-7-(3-piperidin-1-yl-propoxy)-1,2,3,4-tetrahydro-[2,6]-naphthyridine (enantiomer B)] | 233 nM | 42 nM | – | – | – |
| COc1ccc(C2CNCc3cc(OCCCN4CCOCC4)ncc32)cc1 (centres unmarked) [Example 11, 4-(4-Methoxy-phenyl)-7-(3-morpholin-4-yl-propoxy)-1,2,3,4-tetrahydro-[2,6]-naphthyridine] | – | 43 nM | 53 nM | 189 nM | – |
| COc1ccc(C2CN(C)Cc3cc(OCCCN4CCC(F)(F)CC4)ncc32)cc1 (centres unmarked) [Example 28, 7-[3-(4,4-Difluoro-piperidin-1-yl)-propoxy]-4-(4-methoxy-phenyl)-2-methyl-1,2,3,4-tetrahydro-[2,6]naphthyridine] | 129 nM | 264 nM | – | – | – |
| COc1cccc(C2CN(C)Cc3cc(OCCCN4CCCCC4)ncc32)c1 (centres unmarked) [Example 14, 4-(3-Methoxy-phenyl)-2-methyl-7-(3-piperidin-1-yl-propoxy)-1,2,3,4-tetrahydro-[2,6]-naphthyridine] | – | 8 nM | 59 nM | 303 nM | – |
| COc1ccc(C2CN(C)Cc3cc(C#CCCN4CCCCC4)cnc32)cc1 (centres unmarked) [Example 48, 8-(4-Methoxy-phenyl)-6-methyl-3-(4-piperidin-1-yl-but-1-ynyl)-5,6,7,8-tetrahydro-[1,6]naphthyridine trifluoroacetic acid salt] | – | 45 nM | – | 2000 nM | 1000 nM |
| COc1ccc(C2CN(C)Cc3cc(CCCCN4CCCCC4)cnc32)cc1 (centres unmarked) [Example 49, 8-(4-Methoxy-phenyl)-6-methyl-3-(4-piperidin-1-yl-butyl)-5,6,7,8-tetrahydro-[1,6]-naphthyridine trifluoroacetic acid salt] | – | 78 nM | – | 2000 nM | 623 nM |
| CN1Cc2cc(OCCCN3CCCCC3)ncc2C(c2cccc(Cl)c2)C1 (centres unmarked) [Example 27, 4-(3-Chloro-phenyl)-2-methyl-7-(3-piperidin-1-yl-propoxy)-1,2,3,4-tetrahydro-[2,6]-naphthyridine] | – | 7 nM | 144 nM | 826 nM | – |
| COc1ccc(C2CN(C)Cc3cc(OCC4CCN(C(C)C)CC4)ncc32)cc1 (centres unmarked) [Example 40, 7-(1-Isopropyl-piperidin-4-ylmethoxy)-4-(4-methoxy-phenyl)-2-methyl-1,2,3,4-tetrahydro-[2,6]-naphthyridine] | – | 13 nM | 45 nM | 62 nM | – |
| CN1Cc2cc(OCCCN3CCCCC3)ncc2C(c2ccc(Cl)cc2)C1 (centres unmarked) [Example 36, 4-(4-Chloro-phenyl)-2-methyl-7-(3-piperidin-1-yl-propoxy)-1,2,3,4-tetrahydro-[2,6]naphthyridine] | – | 15 nM | 22 nM | 106 nM | – |
| CCN(CC)CCCOc1cc2c(cn1)C(c1ccc(Cl)c(Cl)c1)CN(C)C2 (centres unmarked) [Example 30, {3-[8-(3,4-Dichloro-phenyl)-6-methyl-5,6,7,8-tetrahydro-[2,6]naphthyridin-3-yloxy]-propyl}-diethyl-amine] | – | 16 nM | 33 nM | 30 nM | – |
| CN1Cc2cc(OCCCN3CCCCC3)ncc2C(c2ccccc2)C1 (centres unmarked) [Example 3, 2-Methyl-4-phenyl-7-(3-piperidin-1-yl-propoxy)-1,2,3,4-tetrahydro-[2,6]-naphthyridine] | – | 5 nM | 569 nM | 1140 nM | – |
| FC(F)(F)Oc1ccc(C2CNCc3cc(OCCCN4CCCCC4)ncc32)cc1 (centres unmarked) [Example 44, 7-(3-Piperidin-1-yl-propoxy)-4-(4-trifluoromethoxy-phenyl)-1,2,3,4-tetrahydro-[2,6]naphthyridine] | – | 18 nM | – | 70 nM | 74 nM |
| COc1ccc(C2CNCc3cc(OC4CCNCC4)ncc32)cc1 (centres unmarked) [Example 42, 4-(4-Methoxy-phenyl)-7-(piperidin-4-yloxy)-1,2,3,4-tetrahydro-[2,6]naphthyridine] | – | – | – | – | 106 nM |
| Clc1ccc(C2CNCc3cc(OCCCN4CCOCC4)ncc32)cc1Cl (centres unmarked) [Example 26, 4-(3,4-Dichloro-phenyl)-7-(3-morpholin-4-yl-propoxy)-1,2,3,4-tetrahydro-[2,6]-naphthyridine] | 64 nM | 44 nM | – | 611 nM | – |
| CCN(CC)CCCOc1cc2c(cn1)C(c1ccc(OC)cc1)CNC2 (centres unmarked) [Example 20, Diethyl-{3-[8-(4-methoxy-phenyl)-5,6,7,8-tetrahydro-[2,6]naphthyridin-3-yloxy]-propyl}-amine] | – | 23 nM | 129 nM | 226 nM | – |
| COc1ccc(C2CN(C)Cc3cc(OC4CCN(C)CC4)ncc32)cc1 (centres unmarked) [Example 43, 4-(4-Methoxy-phenyl)-2-methyl-7-(1-methyl-piperidin-4-yloxy)-1,2,3,4-tetrahydro-[2,6]naphthyridine] | – | 796 nM | – | 1020 nM | 137 nM |
| CCN(CC)CCCOc1cc2c(cn1)C(c1ccc(OC)cc1)CN(C)C2 (centres unmarked) [Example 29, Diethyl-{3-[8-(4-methoxy-phenyl)-6-methyl-5,6,7,8-tetrahydro-[2,6]naphthyridin-3-yloxy]-propyl}-amine] | – | 13 nM | 19 nM | 66 nM | – |
| COc1ccc(C2CN(C)Cc3cc(OCCCN4CCOCC4)ncc32)cc1 (centres unmarked) [Example 12, 4-(4-Methoxy-phenyl)-2-methyl-7-(3-morpholin-4-yl-propoxy)-1,2,3,4-tetrahydro-[2,6]-naphthyridine] | – | 90 nM | 29 nM | 70 nM | – |
| COc1ccc(C2CN(C)Cc3cc(OCCCN4CCCCC4)ncc32)cc1 (centres unmarked) [Example 8, 4-(4-Methoxy-phenyl)-2-methyl-7-(3-piperidin-1-yl-propoxy)-1,2,3,4-tetrahydro-[2,6]-naphthyridine] | – | 12 nM | 34 nM | 107 nM | – |
| Clc1ccc(C2CNCc3cc(OCCCN4CCCCC4)ncc32)cc1Cl (single isomer, unassigned; enantiomer a) [Example 45, 4-(3,4-Dichloro-phenyl)-7-(3-piperidin-1-yl-propoxy)-1,2,3,4-tetrahydro-[2,6]-naphthyridine (enantiomer A)] | – | 4 nM | – | – | 101 nM |
| COc1ccc(C2CN(C)Cc3nc(C#CCCN4CCCCC4)ccc32)cc1 (centres unmarked) [Example 51, 5-(4-Methoxy-phenyl)-7-methyl-2-(4-piperidin-1-yl-but-1-ynyl)-5,6,7,8-tetrahydro-[1,7]naphthyridine] | – | 11 nM | – | 32 nM | 21 nM |
| COc1ccc(C2CN(C)Cc3nc(OCCCN4CCCCC4)ccc32)cc1 (centres unmarked) [Example 50, 5-(4-Methoxy-phenyl)-7-methyl-2-(3-piperidin-1-yl-propoxy)-5,6,7,8-tetrahydro-[1,7]naphthyridine] | – | 1 nM | – | 7 nM | 4 nM |
| CN1Cc2cc(OCCCN3CCCCC3)ncc2C(c2ccc(Cl)c(Cl)c2)C1 (single isomer, unassigned; enantiomer a) [Example 38, 4-(3,4-Dichloro-phenyl)-2-methyl-7-(3-piperidin-1-yl-propoxy)-1,2,3,4-tetrahydro-[2,6]-naphthyridine (enantiomer A)] | 56 nM | 50 nM | – | – | – |
| CC(C)N1CCC(COc2cc3c(cn2)C(c2ccc(Cl)c(Cl)c2)CN(C)C3)CC1 (centres unmarked) [Example 41, 4-(3,4-Dichloro-phenyl)-7-(1-isopropyl-piperidin-4-ylmethoxy)-2-methyl-1,2,3,4-tetrahydro-[2,6]naphthyridine] | – | 13 nM | 23 nM | 31 nM | – |
| COc1ccc(C2CNCc3cc(OC4CCN(Cc5ccccc5)CC4)ncc32)cc1 (centres unmarked) [Example 22, 7-(1-Benzyl-piperidin-4-yloxy)-4-(4-methoxy-phenyl)-1,2,3,4-tetrahydro-[2,6]-naphthyridine] | – | – | – | – | 87 nM |
| COc1ccc(C2CNCc3cc(OCCC4CCCN4C)ncc32)cc1 (centres unmarked) [Example 9, 4-(4-Methoxy-phenyl)-7-[2-(1-methyl-pyrrolidin-2-yl)-ethoxy]-1,2,3,4-tetrahydro-[2,6]-naphthyridine] | 43 nM | 3 nM | – | – | – |
| CN1Cc2cc(OCCCN3CCCCC3)ncc2C(c2ccc(F)c(Cl)c2)C1 (centres unmarked) [Example 35, 4-(3-Chloro-4-fluoro-phenyl)-2-methyl-7-(3-piperidin-1-yl-propoxy)-1,2,3,4-tetrahydro-[2,6]naphthyridine] | – | 7 nM | – | 147 nM | 26 nM |
| COc1ccc(C2CNCc3cc(OCCCN4CCC(F)(F)CC4)ncc32)cc1 (centres unmarked) [Example 19, 7-[3-(4,4-Difluoro-piperidin-1-yl)-propoxy]-4-(4-methoxy-phenyl)-1,2,3,4-tetrahydro-[2,6]-naphthyridine] | – | 208 nM | – | 51 nM | 56 nM |
| COc1ccc(C2CN(C)Cc3cc(OCCC4CCCN4C)ncc32)cc1 (centres unmarked) [Example 10, 4-(4-Methoxy-phenyl)-2-methyl-7-[2-(1-methyl-pyrrolidin-2-yl)-ethoxy]-1,2,3,4-tetrahydro-[2,6]-naphthyridine] | – | 4 nM | – | – | 20 nM |
| Clc1ccc(C2CNCc3cc(OCCCN4CCCCC4)ncc32)cc1Cl (single isomer, unassigned; enantiomer b) [Example 46, 4-(3,4-Dichloro-phenyl)-7-(3-piperidin-1-yl-propoxy)-1,2,3,4-tetrahydro-[2,6]-naphthyridine (enantiomer B)] | 17 nM | 13 nM | – | 16 nM | – |
